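1) Cells in 96-well plates. 2) Compound, 48 h, 5 concentrations. 3) Linear interpolation between surrounding doses. 4) Unreached endpoint = highest concentration. The concentration for 50% growth inhibition is given as GI50.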 Calls of active or inactive are those of the source. Rule as the data show it: active = GI50 up to about 1.1 µM and inactive = higher.
Legend:
Assay in all cases: inhibition of tumour cell growth, NCI panel, 48 h
[1] = tested on: OVCAR-3
[2] = tested on: 786-0
[3] = tested on: OVCAR-4
[4] = tested on: NCI-H522
[5] = tested on: MDA-MB-435
[6] = tested on: EKVX
[7] = tested on: NCI/ADR-RES
[8] = tested on: U-251
[9] = tested on: M14
[10] = tested on: SN12C
[11] = tested on: DU-145
[12] = tested on: A498
[13] = tested on: SF-295
[14] = tested on: UACC-257
[15] = tested on: SK-MEL-28
[16] = tested on: SK-OV-3
[17] = tested on: Hs-578T
[18] = tested on: TK-10
[19] = tested on: MCF7
[20] = tested on: SR

| SMILES | GI50 [1] | GI50 [2] | GI50 [3] | GI50 [4] | GI50 [5] | GI50 [6] | GI50 [7] | GI50 [8] | GI50 [9] | GI50 [10] | GI50 [11] | GI50 [12] | GI50 [13] | GI50 [14] | GI50 [15] | GI50 [16] | GI50 [17] | GI50 [18] | GI50 [19] | GI50 [20] |
| --- | --- | --- | --- | --- | --- | --- | --- | --- | --- | --- | --- | --- | --- | --- | --- | --- | --- | --- | --- | --- |
| CCOC(=O)c1cc([N+](=O)[O-])cc([N+](=O)[O-])c1Sc1[nH]cnc2ncnc1-2 | 1.12 µM (active) | 0.824 µM (active) | 1.03 µM (active) | 1.55 µM (inactive) | 1.6 µM (inactive) | 5.08 µM (inactive) | 3.11 µM (inactive) | 8.71 µM (inactive) | 0.869 µM (active) | 2.21 µM (inactive) | 1.31 µM (inactive) | 12.2 µM (inactive) | 7.29 µM (inactive) | 6.21 µM (inactive) | 3.13 µM (inactive) | 11 µM (inactive) | 6.92 µM (inactive) | 4.5 µM (inactive) | 1.61 µM (inactive) | 2.38 µM (inactive) |
| Cc1cc(NS(=O)(=O)c2ccc(NC(=O)c3ccc4nc5ccccc5c(Nc5ccc(S(N)(=O)=O)cc5)c4c3)cc2)no1 | 27.5 µM (inactive) | 17.1 µM (inactive) | 27.4 µM (inactive) | 17.8 µM (inactive) | 21.4 µM (inactive) | 24.7 µM (inactive) | 31.8 µM (inactive) | 25.5 µM (inactive) | 30 µM (inactive) | 27.2 µM (inactive) | 48.3 µM (inactive) | 55.5 µM (inactive) | 26.6 µM (inactive) | 22 µM (inactive) | 21 µM (inactive) | > 100 µM (inactive) | 31.9 µM (inactive) | 30.5 µM (inactive) | 19.9 µM (inactive) | 25.1 µM (inactive) |
| CCn1c2ccc(C(=O)CCCN(C)C)cc2c2cc(C(=O)CCCN(C)C)ccc21 | 1.27 µM (inactive) | 0.243 µM (active) | 1.18 µM (inactive) | 3.04 µM (inactive) | 1.27 µM (inactive) | 1.79 µM (inactive) | 4.93 µM (inactive) | 2.24 µM (inactive) | 1.95 µM (inactive) | 0.946 µM (active) | 2.52 µM (inactive) | 1.32 µM (inactive) | 3.64 µM (inactive) | 3.44 µM (inactive) | 5.66 µM (inactive) | 5.79 µM (inactive) | 2.32 µM (inactive) | 1.98 µM (inactive) | 0.659 µM (active) | 1.13 µM (inactive) |
| Nc1c(/C=C/c2cc3cc(C4=NCCN4)ccc3o2)[nH]c2cc(C3=NCCN3)ccc12 | 35.6 µM (inactive) | 37.3 µM (inactive) | 47.1 µM (inactive) | 45.9 µM (inactive) | 33.1 µM (inactive) | 40.1 µM (inactive) | 76.2 µM (inactive) | 38.3 µM (inactive) | 38.5 µM (inactive) | 33.2 µM (inactive) | 36.1 µM (inactive) | > 100 µM (inactive) | 34.3 µM (inactive) | 46.7 µM (inactive) | 32 µM (inactive) | > 100 µM (inactive) | > 100 µM (inactive) | 31.6 µM (inactive) | 40.7 µM (inactive) | 43.7 µM (inactive) |
| CC(C)(C)C1CCC2c3c([nH]c4ccccc34)C3C(=O)N(c4cccc(Cl)c4)C(=O)C3C2C1 (stereo not given) | 15.1 µM (inactive) | 8.28 µM (inactive) | 14.6 µM (inactive) | 15.8 µM (inactive) | 10.5 µM (inactive) | 11.5 µM (inactive) | 13.6 µM (inactive) | 13.9 µM (inactive) | 9.98 µM (inactive) | 5.71 µM (inactive) | 11.7 µM (inactive) | 22.6 µM (inactive) | 18.5 µM (inactive) | 9.33 µM (inactive) | 14.2 µM (inactive) | 24.1 µM (inactive) | 23.7 µM (inactive) | 16.8 µM (inactive) | 2.06 µM (inactive) | 4.36 µM (inactive) |
| CC(=O)c1ccc2c(c1)CC1(C2)Cc2ccccc2C1=O (stereo not given) | 50.9 µM (inactive) | 77.8 µM (inactive) | 31.4 µM (inactive) | 21.5 µM (inactive) | 34.2 µM (inactive) | 24.2 µM (inactive) | 16 µM (inactive) | 67.5 µM (inactive) | 31 µM (inactive) | 69 µM (inactive) | > 100 µM (inactive) | > 100 µM (inactive) | 56 µM (inactive) | 15.5 µM (inactive) | 64.3 µM (inactive) | > 100 µM (inactive) | 39.8 µM (inactive) | 19.4 µM (inactive) | 26.7 µM (inactive) | 20.8 µM (inactive) |
| COc1ccc2o/c(=N\c3ccc(F)cc3)c(C(N)=O)cc2c1 | 49.9 µM (inactive) | 10.5 µM (inactive) | 27.9 µM (inactive) | 28.9 µM (inactive) | > 100 µM (inactive) | > 100 µM (inactive) | 30.2 µM (inactive) | 34.7 µM (inactive) | > 100 µM (inactive) | 42 µM (inactive) | > 100 µM (inactive) | 20 µM (inactive) | 33.7 µM (inactive) | > 100 µM (inactive) | > 100 µM (inactive) | 17 µM (inactive) | 62.1 µM (inactive) | 21.6 µM (inactive) | 56.8 µM (inactive) | > 100 µM (inactive) |
| S=c1ssc2c3ssc(=S)c3n(Cc3ccccc3)c12 | > 100 µM (inactive) | 37.3 µM (inactive) | > 100 µM (inactive) | 83.2 µM (inactive) | > 100 µM (inactive) | 69.7 µM (inactive) | > 100 µM (inactive) | 60.5 µM (inactive) | > 100 µM (inactive) | > 100 µM (inactive) | 54 µM (inactive) | > 100 µM (inactive) | > 100 µM (inactive) | > 100 µM (inactive) | > 100 µM (inactive) | > 100 µM (inactive) | > 100 µM (inactive) | > 100 µM (inactive) | 81.3 µM (inactive) | 0.67 µM (active) |
| O=c1[nH]c(=O)n(C2C(CO)OC(CO)C2O)cc1F (stereo not given) | > 100 µM (inactive) | > 100 µM (inactive) | > 100 µM (inactive) | > 100 µM (inactive) | > 100 µM (inactive) | > 100 µM (inactive) | > 100 µM (inactive) | > 100 µM (inactive) | > 100 µM (inactive) | > 100 µM (inactive) | > 100 µM (inactive) | > 100 µM (inactive) | > 100 µM (inactive) | > 100 µM (inactive) | > 100 µM (inactive) | > 100 µM (inactive) | > 100 µM (inactive) | > 100 µM (inactive) | > 100 µM (inactive) | > 100 µM (inactive) |
| Nc1nc(Cl)cc(NCCC2(CO)CCC2)n1 | > 100 µM (inactive) | > 100 µM (inactive) | > 100 µM (inactive) | > 100 µM (inactive) | > 100 µM (inactive) | 4.73 µM (inactive) | > 100 µM (inactive) | > 100 µM (inactive) | > 100 µM (inactive) | > 100 µM (inactive) | > 100 µM (inactive) | > 100 µM (inactive) | > 100 µM (inactive) | > 100 µM (inactive) | > 100 µM (inactive) | > 100 µM (inactive) | 45.4 µM (inactive) | > 100 µM (inactive) | > 100 µM (inactive) | > 100 µM (inactive) |
| O=C1C2CC[C@@H]3C(=O)C(Cl)(Cl)[C@@H]3CCC2C1(Cl)Cl (stereo not given in full) | 46.6 µM (inactive) | > 100 µM (inactive) | > 100 µM (inactive) | > 58.7 µM (inactive) | > 100 µM (inactive) | > 100 µM (inactive) | > 100 µM (inactive) | > 100 µM (inactive) | > 100 µM (inactive) | > 100 µM (inactive) | > 100 µM (inactive) | > 100 µM (inactive) | > 100 µM (inactive) | > 100 µM (inactive) | > 100 µM (inactive) | > 100 µM (inactive) | > 100 µM (inactive) | > 100 µM (inactive) | 42.8 µM (inactive) | 26.9 µM (inactive) |
| Nc1nn2c(C(Br)Br)cc(C(Br)Br)nc2c1[N+](=O)[O-] | 0.437 µM (active) | 0.336 µM (active) | 1.45 µM (inactive) | 0.37 µM (active) | 0.587 µM (active) | 2.37 µM (inactive) | 2.78 µM (inactive) | 0.668 µM (active) | 0.627 µM (active) | 1.6 µM (inactive) | 1.68 µM (inactive) | 2.18 µM (inactive) | 1.77 µM (inactive) | 1.32 µM (inactive) | 1.53 µM (inactive) | 3.43 µM (inactive) | 2.36 µM (inactive) | 0.971 µM (active) | 0.826 µM (active) | 0.283 µM (active) |
| O=C(OC1C#CCSCC#C/C=C\1)c1cnc2ccccc2n1 (stereo not given) | > 100 µM (inactive) | 0.461 µM (active) | > 100 µM (inactive) | > 100 µM (inactive) | > 100 µM (inactive) | > 100 µM (inactive) | 0.805 µM (active) | > 100 µM (inactive) | > 100 µM (inactive) | > 100 µM (inactive) | > 100 µM (inactive) | 40 µM (inactive) | > 100 µM (inactive) | > 100 µM (inactive) | > 100 µM (inactive) | > 100 µM (inactive) | 29.8 µM (inactive) | > 100 µM (inactive) | > 100 µM (inactive) | 12.2 µM (inactive) |
| CCc1nc(N)nc(N)c1-c1ccc(NCCN)c([N+](=O)[O-])c1 | 21.8 µM (inactive) | 7.03 µM (inactive) | 20.7 µM (inactive) | 13.7 µM (inactive) | 7.13 µM (inactive) | 29 µM (inactive) | > 100 µM (inactive) | 9.08 µM (inactive) | 8.63 µM (inactive) | 12.1 µM (inactive) | 20.5 µM (inactive) | 17.7 µM (inactive) | 11.3 µM (inactive) | 14.3 µM (inactive) | > 59.3 µM (inactive) | 82.8 µM (inactive) | 89.1 µM (inactive) | > 88.7 µM (inactive) | 10.2 µM (inactive) | 4 µM (inactive) |

From ChEMBL document CHEMBL1201862, “PubChem BioAssay data set” (2004)
